The target in this assay is T1, F508del (Homo sapiens, UniProt P13569, DEL508-508).
T1 construct: expressed in transfected cells
T1 sequence (P13569 with tags, fused parts or gaps DEL508-508): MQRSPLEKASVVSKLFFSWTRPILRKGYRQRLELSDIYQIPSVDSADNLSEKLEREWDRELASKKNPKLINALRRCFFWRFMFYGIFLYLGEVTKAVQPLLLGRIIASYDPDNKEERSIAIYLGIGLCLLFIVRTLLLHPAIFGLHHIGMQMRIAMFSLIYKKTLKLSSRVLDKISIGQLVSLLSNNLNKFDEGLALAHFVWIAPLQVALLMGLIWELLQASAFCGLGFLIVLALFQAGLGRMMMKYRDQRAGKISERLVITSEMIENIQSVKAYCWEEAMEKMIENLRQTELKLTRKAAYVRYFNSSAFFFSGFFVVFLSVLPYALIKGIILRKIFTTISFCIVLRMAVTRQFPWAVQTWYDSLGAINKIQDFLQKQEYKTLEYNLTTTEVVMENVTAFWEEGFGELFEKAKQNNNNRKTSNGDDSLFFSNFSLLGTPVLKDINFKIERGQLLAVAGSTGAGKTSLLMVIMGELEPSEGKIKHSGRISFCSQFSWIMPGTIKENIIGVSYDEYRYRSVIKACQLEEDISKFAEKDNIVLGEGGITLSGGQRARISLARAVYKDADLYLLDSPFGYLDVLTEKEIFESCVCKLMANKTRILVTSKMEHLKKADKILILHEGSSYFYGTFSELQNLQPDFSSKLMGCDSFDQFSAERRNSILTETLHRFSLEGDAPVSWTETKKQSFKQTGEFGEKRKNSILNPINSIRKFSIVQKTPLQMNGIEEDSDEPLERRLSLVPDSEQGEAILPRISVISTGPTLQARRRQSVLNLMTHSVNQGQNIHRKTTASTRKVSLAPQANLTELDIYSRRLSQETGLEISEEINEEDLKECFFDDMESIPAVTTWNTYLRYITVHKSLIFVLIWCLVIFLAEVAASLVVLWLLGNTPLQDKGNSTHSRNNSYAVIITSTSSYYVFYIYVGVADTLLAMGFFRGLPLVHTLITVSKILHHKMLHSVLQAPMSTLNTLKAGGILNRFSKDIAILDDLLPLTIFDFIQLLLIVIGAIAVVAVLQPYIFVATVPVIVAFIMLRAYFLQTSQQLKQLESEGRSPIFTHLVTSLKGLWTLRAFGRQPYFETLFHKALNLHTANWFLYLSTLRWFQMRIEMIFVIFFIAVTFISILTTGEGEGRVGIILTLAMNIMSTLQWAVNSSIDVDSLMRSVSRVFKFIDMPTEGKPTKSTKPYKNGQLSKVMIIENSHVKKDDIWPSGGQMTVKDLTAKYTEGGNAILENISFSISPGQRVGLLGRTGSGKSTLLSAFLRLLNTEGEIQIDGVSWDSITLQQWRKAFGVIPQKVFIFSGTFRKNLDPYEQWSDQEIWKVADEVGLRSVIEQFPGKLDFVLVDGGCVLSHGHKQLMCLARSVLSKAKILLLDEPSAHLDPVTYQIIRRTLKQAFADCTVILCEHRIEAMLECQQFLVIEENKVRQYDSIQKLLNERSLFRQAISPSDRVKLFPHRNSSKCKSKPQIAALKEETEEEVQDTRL
Description: Protocol 1: membrane potential optical assay (FLIPR III, voltage sensing dye), identification of potentiator compounds. The class given is cell-based. The conditions noted are these: Table 3, compounds of Table 1. In outline: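 NIH 3T3 fibroblasts stably expressing F508del were cultured at 27° C for 24 hrs for temperature correction, then treated with compounds or DMSO and loaded with a voltage-sensing redistribution dye. Forskolin added with a Cl⁻ gradient activated the channel; membrane-potential fluorescence on FLIPR III reported increased gating.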
Regarding `CC(C)=C(C)c1ccc(C(=O)NS(=O)(=O)c2cccc(N)n2)c(Oc2c(C)cc(C)cc2C)n1` [Compound 1390, N-[(6-amino-2-pyridyl)sulfonyl]-6-(1,2-dimethylprop-1-enyl)-2-(2,4,6-trimethylphenoxy)pyridine-3-carboxamide], the EC30 result is “+++ (“+++” means <3 uM)”.
Regarding `CC1CN(c2ncccc2C(=O)NS(=O)(=O)c2cccc(OCc3cc(-c4ccccc4)on3)n2)C(C)(C)C1` (centres unmarked) [Compound 1777, N—[[6-[(5-phenylisoxazol-3-yl)methoxy]-2-pyridyl]sulfonyl]-2-(2,2,4-trimethylpyrrolidin-1-yl)pyridine-3-carboxamide], the EC30 entry is listed as “+++ (“+++” means <3 uM)”.
For `CC(C)COc1cc(F)cc(-c2ccc(C(=O)NS(=O)(=O)c3ccn[nH]3)c(N3CCCC3Cc3ccccc3)n2)c1` (centres unmarked) [Compound 1257, 2-(2-benzylpyrrolidin-1-yl)-6-(3-fluoro-5-isobutoxy-phenyl)-N-(1H-pyrazol-5-ylsulfonyl)pyridine-3-carboxamide], the EC30 result is “++ (“++” means between 3 uM and 10 uM)”.
Regarding `Cc1cc(-c2ccc(C(=O)NS(=O)(=O)c3cccc(N)n3)c(N3C[C@@H](C)CC3(C)C)n2)cnc1OCCOCCOCCOC(C)C` [Compound 1787, N-[(6-amino-2-pyridyl)sulfonyl]-6-[6-[2-[2-(2-isopropoxyethoxy)ethoxy]ethoxy]-5-methyl-3-pyridyl]-2-[(4S)-2,2,4-trimethylpyrrolidin-1-yl]pyridine-3-carboxamide], the EC30 entry is “++ (“++” means between 3 uM and 10 uM)”.
`Cc1cn(-c2ccc(C(=O)NS(=O)(=O)c3ccc[nH]c3=O)c(N3C[C@@H](C)CC3(C)C)n2)nc1OCC(C)C` [Compound 1743, 6-(3-isobutoxy-4-methyl-pyrazol-1-yl)-N-[(2-oxo-1H-pyridin-3-yl)sulfonyl]-2-[(4S)-2,2,4-trimethylpyrrolidin-1-yl]pyridine-3-carboxamide]: the EC30 entry is “+++ (“+++” means <3 uM)”.
The same measure for `CC1CN(c2ncc(/C=C/C3CC3)cc2C(=O)NS(=O)(=O)c2cccc(N)n2)C(C)(C)C1` (centres unmarked) [Compound 1571, N-[(6-amino-2-pyridyl)sulfonyl]-5-[(E)-2-cyclopropylvinyl]-2-(2,2,4-trimethylpyrrolidin-1-yl)pyridine-3-carboxamide]: “+++ (“+++” means <3 uM)”; for `CC1CN(c2ncccc2C(=O)NS(=O)(=O)c2cccc(Oc3cccc4ccccc34)n2)C(C)(C)C1` (centres unmarked) [Compound 1751, N—[[6-(1-naphthyloxy)-2-pyridyl]sulfonyl]-2-(2,2,4-trimethylpyrrolidin-1-yl)pyridine-3-carboxamide]: “+++ (“+++” means <3 uM)”; for `CC(C)Oc1cc(F)cc(-c2ccc(C(=O)NS(=O)(=O)c3ccn[nH]3)c(N3[C@H](C)CC[C@@H]3C)n2)c1` [Compound 1285, 2-[(2S,5R)-2,5-dimethylpyrrolidin-1-yl]-6-(3-fluoro-5-isopropoxy-phenyl)-N-(1H-pyrazol-5-ylsulfonyl)pyridine-3-carboxamide]: “+++ (“+++” means <3 uM)”.
For `CC(C)COc1cc(F)cc(-c2ccc(C(=O)NS(=O)(=O)c3cccc(N)n3)c(OC3CCCCC3C)n2)c1` (centres unmarked) [Compound 1108, N-[(6-amino-2-pyridyl)sulfonyl]-6-(3-fluoro-5-isobutoxy-phenyl)-2-(2-methylcyclohexoxy)pyridine-3-carboxamide], the EC30 entry is on record as “+++ (“+++” means <3 uM)”.
`CC(C)COc1cc(F)cc(-c2ccc(C(=O)NS(=O)(=O)c3cccc(N)n3)c(OCCc3ccccn3)n2)c1` [Compound 1625, N-[(6-amino-2-pyridyl)sulfonyl]-6-(3-fluoro-5-isobutoxy-phenyl)-2-[2-(2-pyridyl)ethoxy]pyridine-3-carboxamide]: the EC30 result is “++ (“++” means between 3 uM and 10 uM)”.
For `COc1cccc2c1C(C)(C(=O)NS(=O)(=O)c1cccc(N)n1)N(Cc1c(C)cc(C)cc1C)C2` (centres unmarked) [Compound 1075, N-[(6-amino-2-pyridyl)sulfonyl]-7-methoxy-1-methyl-2-[(2,4,6-trimethylphenyl)methyl]isoindoline-1-carboxamide], the EC30 entry is “+++ (“+++” means <3 uM)”.
For the compound `Cc1cc(C)c(Oc2nc(N(C)CC(C)C)c(C)cc2C(=O)NS(=O)(=O)c2cccc(N)n2)c(C)c1` [Compound 1416, N-[(6-amino-2-pyridyl)sulfonyl]-6-[isobutyl(methyl)amino]-5-methyl-2-(2,4,6-trimethylphenoxy)pyridine-3-carboxamide], the EC30 entry was “+++ (“+++” means <3 uM)”.
For `CC1CN(c2nc(-c3cnn(C(C)C)c3)ccc2C(=O)NS(=O)(=O)c2cccc(N)n2)C(C)(C)C1` (centres unmarked) [Compound 1067, N-[(6-amino-2-pyridyl)sulfonyl]-6-(1-isopropylpyrazol-4-yl)-2-(2,2,4-trimethylpyrrolidin-1-yl)pyridine-3-carboxamide] the value was “+++ (“+++” means <3 uM)”.
Take `CC(C)COc1cc(F)cc(-c2ccc(C(=O)NS(=O)(=O)c3cccc(N)n3)c(N3CCCC34CCC4)n2)c1` [Compound 845, N-[(6-amino-2-pyridyl)sulfonyl]-2-(8-azaspiro[3.4]octan-8-yl)-6-(3-fluoro-5-isobutoxy-phenyl)pyridine-3-carboxamide]: the EC30 entry is “+++ (“+++” means <3 uM)”.
With `CC1CN(c2ncccc2C(=O)NS(=O)(=O)c2cccc(OCC3CCNC3)n2)C(C)(C)C1` (centres unmarked) [Compound 1734, N—[[6-(pyrrolidin-3-ylmethoxy)-2-pyridyl]sulfonyl]-2-(2,2,4-trimethylpyrrolidin-1-yl)pyridine-3-carboxamide], the EC30 result was “+++ (“+++” means <3 uM)”.
For `CCC(Oc1nc(C(C)(C)C)ccc1C(=O)NS(=O)(=O)c1cccc(N)n1)c1ccccc1` (centres unmarked) [Compound 1045, N-[(6-amino-2-pyridyl)sulfonyl]-6-tert-butyl-2-(1-phenylpropoxy)pyridine-3-carboxamide] the value was “++ (“++” means between 3 uM and 10 uM)”.
For `COc1cc(C(C)(C)C)nc(Oc2c(C)cc(C)cc2C)c1C(=O)NS(=O)(=O)c1cccc(N)c1` [Compound 959, N-(3-aminophenyl)sulfonyl-6-tert-butyl-4-methoxy-2-(2,4,6-trimethylphenoxy)pyridine-3-carboxamide] the value was “+++ (“+++” means <3 uM)”; for `C[C@@H]1CN(c2nc(C(C)(C)C)c(/C=C/C3CC3)cc2C(=O)NS(=O)(=O)c2cccc(N)n2)C(C)(C)C1` [Compound 1665, N-[(6-amino-2-pyridyl)sulfonyl]-6-tert-butyl-5-[(E)-2-cyclopropylvinyl]-2-[(4S)-2,2,4-trimethylpyrrolidin-1-yl]pyridine-3-carboxamide], “+++ (“+++” means <3 uM)”.
As to `CCOc1cccc2c1CN(Cc1c(C)cc(C)cc1C)C2(C)C(=O)NS(=O)(=O)c1ncccc1O` (centres unmarked) [Compound 1642, 4-ethoxy-N-[(3-hydroxy-2-pyridyl)sulfonyl]-1-methyl-2-[(2,4,6-trimethylphenyl)methyl]isoindoline-1-carboxamide], the EC30 result was “+++ (“+++” means <3 uM)”.
Take `Cc1cc(C)c(Oc2nc(-c3cccc(O)c3)ccc2C(=O)NS(=O)(=O)c2cccc(N)n2)c(C)c1` [Compound 908, N-[(6-amino-2-pyridyl)sulfonyl]-6-(3-hydroxyphenyl)-2-(2,4,6-trimethylphenoxy)pyridine-3-carboxamide]: the EC30 entry was “+ (“+” means greater than 10 uM)”.

(Values after patent US10758534B2 (Vertex Pharmaceuticals Incorporated, priority 2014, dated 2020).)
